Assay results from patent US7531533B2, “6-Membered heterocyclic compound and use thereof” (Asahi Kasei Pharma Corporation, priority 2005, dated 2009).

Experiments:
[1] = biological target: T1, human EP4 receptor (Homo sapiens, UniProt P35408); assay: Agonist activity measurement (cAMP production) using human EP4 receptor expressing HEK293 cells; type: cell-based; details: test compound concentration of 10 μM, HEK293 stably expressing human EP4
T1 construct: expressed in transfected cells
Description: Agonist Activity Measurement Using Human EP4 Receptor Expressing Cells
In order to investigate EP4 receptor agonist activity of the compounds of the present invention, cAMP production was measured by using HEK293 in which the human EP4 receptor was stably expressed.
As a result of searching for prostaglandin E receptors using Refseq Database, the gene information of human EP4 (NM_000958) receptor was obtained. On the basis of the sequence information, the human EP4 receptor gene was cloned by PCR using human cDNA as a template in a conventional manner to establish HEK293 in which the human EP4 receptor was stably expressed. These cells were inoculated on a 96-well poly-D-lysine coated plate at a density of 2×10^4 cells/well, and cultured for 1 day. The medium in the wells was removed by aspiration, 80 μL of Dulbecco's modified Eagle's medium was added to each well, and the cells were incubated at 37° C. for 15 minutes. Then, 20 μL of an assay medium (Dulbecco's modified Eagle's medium containing 100 mM HEPES and 1 mM IBMX) containing PGE2 or a test compound (at 5-fold concentration of the final concentration) was added to start the reaction, and the reaction was allowed at 37° C. for 30 minutes. Then, the medium was removed by aspiration, and the reaction was terminated by adding 100 μL of Assay/Lysis Buffer included in cAMP Screen Kit (produced by Applied Biosystems). Then, the cells were incubated at 37° C. for 30 minutes, and used as a sample for cAMP quantification. By using this sample, amount of cAMP in the sample was quantified according to the method attached to cAMP Screen Kit.

[2] = tested on: rat bone marrow cells; assay: Bone nodule formation action in rat bone marrow cells; type: cell-based
Description: Bone Nodule Formation Action in Rat Bone Marrow Cells
In order to investigate osteogenesis promoting action of the compounds of the present invention, the compounds were made to act on cultured rat bone marrow cells, and the number of formed bone nodule was counted.
As rat bone marrow cells, mesenchymal cells (KEM100) derived from rat bone marrow purchased from Dainippon Pharmaceutical were used. The cells stored in liquid nitrogen were thawed at 37° C., then suspended in a phosphate-buffered saline, and centrifuged at 900 rpm for 5 minutes. The supernatant was removed, and the cells were suspended again in a MEM culture medium (produced by GIBCO) containing 10% fetal bovine serum (produced by GIBCO). After the number of cells was counted, the cells were inoculated on a 12-well plate (produced by IWAKI) at a cell density of 1×10^4 cells/cm^2, and cultured at 37° C. in a 5% CO2 incubator. From the next day of the inoculation, the medium was exchanged with the α MEM culture medium containing 10% fetal bovine serum every 2 or 3 days, and the cells were proliferated to the confluent state. The addition of the compound was conducted from the next day after the cells reached confluent. […]

T1 sequence (P35408 whole entry): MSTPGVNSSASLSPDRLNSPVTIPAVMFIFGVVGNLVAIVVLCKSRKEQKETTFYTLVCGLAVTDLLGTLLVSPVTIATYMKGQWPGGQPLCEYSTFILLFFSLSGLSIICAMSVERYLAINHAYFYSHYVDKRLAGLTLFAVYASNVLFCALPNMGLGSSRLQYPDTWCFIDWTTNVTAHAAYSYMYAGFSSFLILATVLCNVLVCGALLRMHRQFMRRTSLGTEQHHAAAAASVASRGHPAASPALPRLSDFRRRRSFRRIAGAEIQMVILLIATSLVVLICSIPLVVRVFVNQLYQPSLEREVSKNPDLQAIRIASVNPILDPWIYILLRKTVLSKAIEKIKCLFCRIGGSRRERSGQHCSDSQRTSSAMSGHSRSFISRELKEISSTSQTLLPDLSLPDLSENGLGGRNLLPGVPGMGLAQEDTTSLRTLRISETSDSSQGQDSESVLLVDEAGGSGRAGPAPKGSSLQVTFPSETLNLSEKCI

Structure (SMILES) | increase of cAMP [1] | bone nodule formation promoting action (number of mineralized bone nodule formed) ([2]; concentration ranging from 1 nM to 10 μM, von Kossa staining 21 to 28 days after addition) | cytotoxicity ([2]; rat bone marrow cells, 1 nM to 10 μM)
O=C(O)c1cccc(OCCN2C(=O)CCCN2CCC(O)Cc2cccc(C(F)(F)F)c2)c1 (stereo not shown) [IDH-H001, 3-[2-(2-{3-hydroxy-4-[3-(trifluoromethyl)phenyl]butyl}-6-oxotetrahydropyridazin-1-yl)ethyloxy]benzoic acid] | Increase of cAMP was observed |  | 
O=C(O)c1ccc(OCCN2C(=O)CCCN2CCC(O)Cc2cccc(C(F)(F)F)c2)cc1 (stereo not shown) [IEH-H001, 4-[2-(2-{3-hydroxy-4-[3-(trifluoromethyl)phenyl]butyl}-6-oxo-tetrahydropyridazin-1-yl)ethyloxy]benzoic acid] | Increase of cAMP was observed |  | 
O=C(O)c1ccc(CCN2C(=O)CCCN2CCC(O)Cc2cccc(C(F)(F)F)c2)cc1 (stereo not shown) [IAH-H001, 4-[2-(2-{3-hydroxy-4-[3-(trifluoromethyl)phenyl]butyl}-6-oxotetrahydropyridazin-1-yl)ethyl]benzoic acid] | Increase of cAMP was observed | exhibited an bone nodule formation promoting action in a dose-dependent manner | no cytotoxicity
O=C(O)c1ccc(CCN2C(=O)CCCN2CCC(O)c2ccccc2)cc1 (stereo not shown) [IAH-H002] | Increase of cAMP was observed |  | 
O=C(O)c1ccc(CCN2C(=O)CCCN2CCC(O)c2ccc(F)cc2)cc1 (stereo not shown) [IAH-H003, 4-(2-{2-[3-hydroxy-3-(4-fluorophenyl)propyl]-6-oxotetrahydro-pyridazin-1-yl}ethyl)benzoic acid] | Increase of cAMP was observed |  | 
O=C(O)c1ccc(CCN2C(=O)CCCN2CCC(O)c2cccc(-c3ccc(F)cc3)c2)cc1 (stereo not shown) [IAH-H004, 4-[2-(2-{3-hydroxy-3-[3-(4-fluorophenyl)phenyl]propyl}-6-oxotetrahydropyridazin-1-yl)ethyl]benzoic acid] | Increase of cAMP was observed |  | 
COc1cccc(CC(O)CCN2CCCC(=O)N2CCc2ccc(C(=O)O)cc2)c1 (stereo not shown) [IAH-H005, 4-(2-{2-[3-hydroxy-4-(3-methoxyphenyl)butyl]-6-oxotetrahydro-pyridazin-1-yl}ethyl)benzoic acid] | Increase of cAMP was observed |  | 
O=C(O)COc1cccc(CN2C(=O)CCCN2CCC(O)Cc2cccc(C(F)(F)F)c2)c1 (stereo not shown) [ICH-H001, 2-{3-[(2-{3-hydroxy-4-[3-(trifluoromethyl)phenyl]butyl}-6-oxotetrahydropyridazin-1-yl)methyl]phenyloxy}acetic acid] | Increase of cAMP was observed |  | 
O=C(O)c1ccc(CCN2C(=O)CCCN2CCC(O)Cc2cccc(Cl)c2)cc1 (stereo not shown) [IAH-H024, 4-[2-(2-{4-[3-chlorophenyl]-3-hydroxybutyl}-6-oxotetrahydropyridazin-1-yl)ethyl]benzoic acid] | Increase of cAMP was observed |  | 

Continued, in another order:

increase of cAMP [1] | Structure (SMILES) | bone nodule formation promoting action (number of mineralized bone nodule formed) ([2]; concentration ranging from 1 nM to 10 μM, von Kossa staining 21 to 28 days after addition) | cytotoxicity ([2]; rat bone marrow cells, 1 nM to 10 μM)
Increase of cAMP was observed | O=C(O)c1cccc(CCCN2C(=O)CCCN2CCC(O)Cc2cccc(C(F)(F)F)c2)c1 (stereo not shown) [IFH-H001, 3-[3-(2-{3-hydroxy-4-[3-(trifluoromethyl)phenyl]butyl}-6-oxo-tetrahydropyridazin-1-yl)propyl]benzoic acid] |  | 
Increase of cAMP was observed | O=C(O)CCc1cccc(CN2C(=O)CCCN2CCC(O)Cc2cccc(C(F)(F)F)c2)c1 (stereo not shown) [IPH-H001, 3-{3-[(2-{3-hydroxy-4-[3-(trifluoromethyl)phenyl]butyl}-6-oxotetrahydropyridazin-1-yl)methyl]phenyl}propionic acid] |  | 
Increase of cAMP was observed | O=C(O)c1ccc(CCCN2C(=O)CCCN2CCC(O)Cc2cccc(C(F)(F)F)c2)cc1 (stereo not shown) [IGH-H001, 4-[3-(2-{3-hydroxy-4-[3-(trifluoromethyl)phenyl]butyl}-6-oxotetrahydropyridazin-1-yl)propyl]benzoic acid] |  | 
Increase of cAMP was observed | O=C(O)C=Cc1cccc(CN2C(=O)CCCN2CCC(O)Cc2cccc(C(F)(F)F)c2)c1 (stereo not shown) [IOH-H001, 3-{3-[(2-{3-hydroxy-4-[3-(trifluoromethyl)phenyl]butyl}-6-oxotetrahydropyridazin-1-yl)methyl]phenyl}acrylic acid] |  | 
Increase of cAMP was observed | O=C(O)c1ccc(CCN2C(=S)CCCN2CCC(O)Cc2cccc(C(F)(F)F)c2)cc1 (stereo not shown) [ITH-H001, 4-[2-(2-{3-hydroxy-4-[3-(trifluoromethyl)phenyl]butyl}-6-thioxotetrahydropyridazin-1-yl)ethyl]benzoic acid] |  | 
Increase of cAMP was observed | O=C(O)Cc1cccc(CN2C(=O)CCCN2CCC(O)Cc2cccc(C(F)(F)F)c2)c1 (stereo not shown) [ILH-H001, 2-{3-[(2-{3-hydroxy-4-[3-(trifluoromethyl)phenyl]butyl}-6-oxotetrahydropyridazin-1-yl)methyl]phenyl}acetic acid] |  | 
Increase of cAMP was observed | O=C(O)Cc1ccc(CN2C(=O)CCCN2CCC(O)Cc2cccc(C(F)(F)F)c2)cc1 (stereo not shown) [IKH-H001, 2-{4-[(2-{3-hydroxy-4-[3-(trifluoromethyl)phenyl]butyl}-6-oxotetrahydropyridazin-1-yl)methyl]phenyl}acetic acid] |  | 
Increase of cAMP was observed | O=C(O)c1ccc(CCCN2C(=O)CCCN2CCC(O)Cc2cccc(C(F)(F)F)c2)o1 (stereo not shown) [IHH-H001, 5-[3-(2-{3-hydroxy-4-[3-(trifluoromethyl)phenyl]butyl}-6-oxotetrahydropyridazin-1-yl)propyl]furan-2-carboxylic acid] |  | 
